The results in this text go back to US20250289790A1, “UV LIGHT STABILIZERS” (BASF SE, priority 2022, published 2025).

The nature of the data set: Solubility at room temperature in xylene / toluene. In kind it is physicochemical.

For the molecule `CC(C)(C)c1cc(CCC(=O)OCC(COC(=O)CCc2cc(-n3nc4ccc(Cl)cc4n3)c(O)c(C(C)(C)C)c2)(COC(=O)CCc2cc(-n3nc4ccc(Cl)cc4n3)c(O)c(C(C)(C)C)c2)COC(=O)CCc2cc(-n3nc4ccc(Cl)cc4n3)c(O)c(C(C)(C)C)c2)cc(-n2nc3ccc(Cl)cc3n2)c1O` [Example C3], the soluble in xylene result is listed as “less than 1%”. Further, for the setting “room temperature”, the “Solubility at room temperature [g] xylene” value is given as 2 g.
